Assay results: patent US4990520A, “2-,4- or 5-substituted thiazole derivatives” (American Cyanamid Company, priority 1990, dated 1991)
Structures can show the parent of a compound that is named as a salt.

Legend:
SDAT patients = conditions: versus anticholinesterase inhibitor physostigmine; cited from earlier work
[1] = molecular target: muscarinic cholinergic receptor; assay: [3H] Quinuclinyl Benzilate (3H-QNB) Binding Assay; parameters: species or system rat; conditions: pH 7.4
[2] = molecular target: high affinity agonist conformation of the muscarinic cholinergic receptor; assay: [3H]-Cis-methyldioxolane (3H-CD) Binding Assay (High Affinity); conditions: rat cerebral cortex, 1.0 nM 3H-CD, 25° C., 120 minutes, pH 7.4
postsynaptic cholinergic = conditions: cited from earlier work
presynaptic cholinergic = conditions: cited from earlier work
[3] = rat cerebral cortex, 0.25 nM 3H-QNB, 25° C., 120 minutes, hydrochloride
[4] = rat cerebral cortex, 0.25 nM 3H-QNB, 25° C., 120 minutes

Row | Molecule | IC50 [2] [µM] | IC50 [1, 4] [µM] | further results
1 | COC(=O)C1=CCCN(C)C1 [arecoline] | – | – | improvement when compared to physostigmine (SDAT patients): more-consistent improvement
2 | CN(C)CC#Cc1cncs1 [N,N-Dimethyl-3-(5-thiazolyl)-2-propyn-1-amine, hydrochloride] | – | – | IC50 [1, 3]: 482 µM
3 | C[N+](C)(C)CC#Cc1cscn1 [N,N,N-Trimethyl-3-(4-thiazolyl)-2-propyn-1-aminium, iodide] | 1.46 | – | IC50 [1]: 119 µM
4 | C(#Cc1cscn1)CN1CCCCC1 [1-[3-(4-Thiazolyl)-2-propynyl]piperidine] | 28.1 | 124 | –
5 | C[N+](C)(C)CC#Cc1cncs1 [N,N,N-Trimethyl-3-(5-thiazolyl)-2-propyn-1-aminium iodide] | 0.273 | 131 | –
6 | Cl/C(=C/c1nccs1)CN1CCCCC1 [1-[2-Chloro-3-(2-thiazolyl)-2-propenyl]piperidine,(E)] | 6.59 | 117 | –
7 | C(#Cc1nccs1)CN1CCCCC1 [1-[3-(2-Thiazolyl)-2-propynyl]piperidine] | 10.2 | 182 | –
8 | CN(C)CC#Cc1cncs1 [N,N-Dimethyl-3-(5-thiazolyl)-2-propyn-1-amine] | 3.38 | 765 | –
9 | C(#Cc1cscn1)CN1CCCCC1 [1-[3-(4-Thiazolyl)-2-propynyl]piperidine, hydrochloride] | – | – | IC50 [1, 3]: 114 µM; IC50 ([2]; hydrochloride): 14 µM
10 | CC(=O)N(C)C(C)C#CCN1CCCC1 (stereo not shown) [BM-5, N-methyl-N-(1-methyl-4-pyrrolidino-2-butynyl) acetamide] | – | – | postsynaptic cholinergic activity (postsynaptic cholinergic): postsynaptic partial cholinergic agonist; presynaptic cholinergic activity (presynaptic cholinergic): presynaptic cholinergic antagonist
11 | CN(C)CC#Cc1nccs1 [N,N-Dimethyl-3-(2-thiazolyl)-2-propyn-1-amine] | 9.98 | 1310 | –
12 | Cl/C(=C/c1nccs1)CN1CCCC1 [2-[2-Chloro-3-(1-pyrrolidinyl)-1-propenyl]thiazole,(E)] | 2.23 | 186 | –
13 | 1-[3-(5-Thiazolyl)-2-propenyl]piperidine | 12.6 | 164 | –
14 | C(#Cc1cncs1)CN1CCCC1 [5-[3-(1-Pyrrolidinyl)-1-propynyl] thiazole] [5-[3-(1-Pyrrolidinyl)-1-propynyl]thiazole] | 4.7 | 115 | –
15 | C(#Cc1cncs1)CN1CCCCC1 [1-[3-(5-Thiazolyl)-2-propynyl]piperidine, hydrochloride] | 0.658 | 119 | –
16 | Br/C(=C/c1nccs1)CN1CCCC1 [2-[2-Bromo-3-(1-pyrrolidinyl)-1-propenyl]thiazole,(E)] | – | 90 | –
17 | CN(C)CC#Cc1cscn1 [--N, --N-Dimethyl-3-(4-thiazolyl)-2-propyn-1-amine] [N,N-Dimethyl-3-(4-thiazolyl)-2-propyn-1-amine] | 12.9 | 504 | –
18 | C(#Cc1cncs1)CN1CCCC1 [5-[3-(1-Pyrrolidinyl)-1-propynyl]thiazole] | 0.245 | 73 | –
19 | CN(C)C/C(Cl)=C\c1nccs1 [2-Chloro-N,N-dimethyl-3-(2-thiazolyl)-2-propen-1-amine,(E)] | 1.07 | 222 | –
20 | C(#Cc1nccs1)CN1CCCC1 [2-[3-(1-Pyrrolidinyl)-1-propynyl]thiazole] | 1.43 | 44 | –
21 | C[N+](C)(C)CC#Cc1nccs1 [N,N,N-Trimethyl-3-(2-thiazolyl)-2-propyn-1-aminium iodide] | 0.673 | – | IC50 [1]: 123 µM
22 | C(#Cc1cscn1)CN1CCCC1 [4-[3-(1-Pyrrolidinyl)-1-propynyl]thiazole] | 3.95 | 71 | –
23 | CN(C)CC#Cc1cscn1 [--N, --N-Dimethyl-3-(4-thiazoyl)-2-propyn-1-amine] [N,N-Dimethyl-3-(4-thiazoyl)-2-propyn-1-amine] | 19 | 381 | –
